Measured values taken from patent US20250325552A1, “SUBSTITUTED THIADIAZOLYL DERIVATIVES AS DNA POLYMERASE THETA INHIBITORS” (IDEAYA Biosciences, Inc., priority 2020, published 2025).

Biological target: Polθ theta (1-899) (hPolQ) (Homo sapiens (Human), UniProt O75417)
Assay: Biological Assay 1: Polθ ATPase activity, NADH oxidation-coupled enzymatic assay (10 nM enzyme, 30 min)
Type: biochemical
Conditions: Polθ (1-899) 10 nM, 100 μM ATP, 300 nM dT50 ssDNA; Examples 1 to 268; read-out: ATPase NADH coupling:Standard Screening:hPolQ IC50
Method in brief: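 ATP turnover was coupled to NADH oxidation and followed at 340 nm every minute for 30 min. Enzyme (residues 1-899, 10 nM) sat with compound for 15 min at room temperature before an equal-volume addition of 100 μM ATP plus 300 nM dT50 ssDNA. Progress-curve slopes from 10-point dilutions were fitted by a four-parameter model.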

Chain of Polθ theta (1-899) (hPolQ) (O75417 1-899): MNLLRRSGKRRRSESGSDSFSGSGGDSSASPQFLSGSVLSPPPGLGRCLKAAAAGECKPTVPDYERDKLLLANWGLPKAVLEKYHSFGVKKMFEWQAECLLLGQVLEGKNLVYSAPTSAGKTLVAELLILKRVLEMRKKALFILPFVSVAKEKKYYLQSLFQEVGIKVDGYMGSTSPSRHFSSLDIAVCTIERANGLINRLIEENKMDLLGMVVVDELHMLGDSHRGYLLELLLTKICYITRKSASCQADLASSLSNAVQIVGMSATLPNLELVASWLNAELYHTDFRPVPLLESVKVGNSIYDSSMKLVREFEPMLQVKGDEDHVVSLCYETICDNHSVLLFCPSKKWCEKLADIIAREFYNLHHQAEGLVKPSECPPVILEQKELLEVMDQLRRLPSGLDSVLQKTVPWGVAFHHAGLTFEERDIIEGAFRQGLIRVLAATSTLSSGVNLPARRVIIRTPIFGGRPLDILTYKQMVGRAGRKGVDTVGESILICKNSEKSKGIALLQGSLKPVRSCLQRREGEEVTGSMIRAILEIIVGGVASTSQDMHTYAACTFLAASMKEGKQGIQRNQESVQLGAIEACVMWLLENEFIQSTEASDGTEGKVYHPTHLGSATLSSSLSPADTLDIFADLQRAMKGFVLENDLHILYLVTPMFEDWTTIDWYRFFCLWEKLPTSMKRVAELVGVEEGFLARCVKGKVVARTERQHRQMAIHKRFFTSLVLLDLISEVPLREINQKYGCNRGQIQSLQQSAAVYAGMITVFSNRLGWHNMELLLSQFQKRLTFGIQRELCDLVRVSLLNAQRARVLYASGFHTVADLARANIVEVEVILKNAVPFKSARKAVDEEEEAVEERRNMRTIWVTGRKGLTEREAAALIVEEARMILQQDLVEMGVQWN

Row | SMILES | IC50
1 | COc1ccccc1-c1nc2cccnc2cc1C(=O)Nc1nnc(OCc2ccc(Cl)cn2)s1 [Example 9, N-(5-((5-chloropyridin-2-yl)methoxy)-1,3,4-thiadiazol-2-yl)-2-(2-methoxyphenyl)-1,5-naphthyridine-3-carboxamide] | 1000 to 10000 nM
2 | Cc1cc(-c2cc(CO)ccc2F)c(C(=O)Nc2nnc(OCc3ccc(Cl)cn3)s2)cn1 [Example 23, N-(5-((5-chloropyridin-2-yl)methoxy)-1,3,4-thiadiazol-2-yl)-4-(2-fluoro-5-(hydroxymethyl)phenyl)-6-methylnicotinamide] | ≤ 200 nM
3 | COc1cnc(Cl)cc1-c1cc(C)ncc1C(=O)Nc1nnc(OC[C@@]23COC[C@@H]2C3)s1 (single isomer, unassigned) [Example 230] | ≤ 200 nM
4 | COc1ccccc1-c1cc(C)ncc1C(=O)Nc1nnc(OCc2nccc3[nH]ncc23)s1 [Example 10, N-(5-((1H-pyrazolo(4,3-c)pyridin-4-yl)methoxy)-1,3,4-thiadiazol-2-yl)-4-(2-methoxyphenyl)-6-methylnicotinamide] | 500 to 1000 nM
5 | COc1cnc(Cl)cc1-c1cc(C)ncc1C(=O)Nc1nnc(OCC2COC(C)(C)CO2)s1 (stereo not shown) [Example 228, 2′-chloro-N-(5-((5,5-dimethyl-1,4-dioxan-2-yl)methoxy)-1,3,4-thiadiazol-2-yl)-5′-methoxy-6-methyl-(4,4′-bipyridine)-3-carboxamide] | ≤ 200 nM
6 | COc1cccc(F)c1-c1cc(C)ncc1C(=O)Nc1nnc(OC[C@H]2CC[C@H](O)CC2)s1 [Example 104, 4-(2-fluoro-6-methoxyphenyl)-N-(5-(((1r,4r)-4-hydroxycyclohexyl)methoxy)-1,3,4-thiadiazol-2-yl)-6-methylnicotinamide] | ≤ 200 nM
7 | COc1cccc(F)c1-c1cc(C)ncc1C(=O)Nc1nnc(OCC23CC(CO)(C2)C3)s1 [Example 132, 4-(2-fluoro-6-methoxyphenyl)-N-(5-((3-(hydroxymethyl)bicyclo(1.1.1)pentan-1-yl)methoxy)-1,3,4-thiadiazol-2-yl)-6-methylpyridine-3-carboxamide] | ≤ 200 nM
8 | COc1cccc(F)c1-c1cc(C)ncc1C(=O)Nc1nnc(OCc2ccc(CCO)cn2)s1 [Example 55, 4-(2-fluoro-6-methoxyphenyl)-N-(5-((5-(2-hydroxyethyl)pyridin-2-yl)methoxy)-1,3,4-thiadiazol-2-yl)-6-methylnicotinamide] | ≤ 200 nM
9 | COc1cnc(Cl)cc1-c1cc(C)ncc1C(=O)Nc1nnc(OCC2CCOC2)s1 (racemic) [Example 167, 2′-chloro-5′-methoxy-6-methyl-N-(5-((tetrahydrofuran-3-yl)methoxy)-1,3,4-thiadiazol-2-yl)-(4,4′-bipyridine)-3-carboxamide] | ≤ 200 nM
10 | COc1cccc(F)c1-c1cc2nc[nH]c2cc1C(=O)Nc1nnc(OC[C@H]2CC[C@H](O)CC2)s1 [Example 199, 5-(2-fluoro-6-methoxyphenyl)-N-(5-(((1r,4r)-4-hydroxycyclohexyl)methoxy)-1,3,4-thiadiazol-2-yl)-1H-benzo(d)imidazole-6-carboxamide] | 1000 to 10000 nM
11 | COc1cnc(C)c(F)c1-c1cc(C)ncc1C(=O)Nc1nnc(OC[C@H]2CCOC2)s1 [Example 249, 3′-fluoro-5′-methoxy-2′,6-dimethyl-N-(5-(((S)-tetrahydrofuran-3-yl)methoxy)-1,3,4-thiadiazol-2-yl)-(4,4′-bipyridine)-3-carboxamide] | ≤ 200 nM
12 | COc1ccc(F)cc1-c1cc(C)ncc1C(=O)Nc1nnc(OCc2ccc(Cl)cn2)s1 [Example 13, N-(5-((5-chloropyridin-2-yl)methoxy)-1,3,4-thiadiazol-2-yl)-4-(5-fluoro-2-methoxyphenyl)-6-methylnicotinamide] | ≤ 200 nM
13 | COc1cnc(C)c(F)c1-c1cc(C)ncc1C(=O)Nc1nnc(OC[C@H]2CC[C@@](C)(O)CC2)s1 [Example 213, 3′-fluoro-N-(5-(((1s,4s)-4-hydroxy-4-methylcyclohexyl)methoxy)-1,3,4-thiadiazol-2-yl)-5′-methoxy-2′,6-dimethyl-(4,4′-bipyridine)-3-carboxamide] | ≤ 200 nM
14 | COc1cccc(F)c1-c1cc(C)ncc1C(=O)Nc1nnc(OC[C@H]2CC[C@@H](O)CC2)s1 [Example 101, 4-(2-fluoro-6-methoxyphenyl)-N-(5-(((1s,4s)-4-hydroxycyclohexyl)methoxy)-1,3,4-thiadiazol-2-yl)-6-methylnicotinamide] | ≤ 200 nM
15 | COc1cccc(F)c1-c1cc(C)ncc1C(=O)Nc1nnc(OCC23CCC(O)(CC2)C3)s1 [Example 112, 4-(2-fluoro-6-methoxyphenyl)-N-(5-((4-hydroxybicyclo(2.2.1)heptan-1-yl)methoxy)-1,3,4-thiadiazol-2-yl)-6-methylpyridine-3-carboxamide] | ≤ 200 nM
16 | COc1ccc(COc2nnc(NC(=O)c3cnc(C)cc3-c3cc(Cl)ccc3OC)s2)nc1 [Example 52, 4-(5-chloro-2-methoxyphenyl)-N-(5-((5-methoxypyridin-2-yl)methoxy)-1,3,4-thiadiazol-2-yl)-6-methylpyridine-3-carboxamide] | ≤ 200 nM

Row | SMILES | IC50
17 | COc1cnc(Cl)cc1-c1cc(C)ncc1C(=O)Nc1nnc(OC[C@H]2C[C@H](O)C2)s1 [Example 108, 2′-chloro-N-(5-(((1r,3r)-3-hydroxycyclobutyl)methoxy)-1,3,4-thiadiazol-2-yl)-5′-methoxy-6-methyl-[4,4′-bipyridine]-3-carboxamide] | ≤ 200 nM
18 | COc1ccccc1-c1cc(C)ncc1C(=O)Nc1nnc(OCc2ccc3c(n2)CCNC3)s1 [Example 71, 4-(2-methoxyphenyl)-6-methyl-N-(5-(5,6,7,8-tetrahydro-1,6-naphthyridin-2-ylmethoxy)-1,3,4-thiadiazol-2-yl)pyridine-3-carboxamide] | 500 to 1000 nM
19 | COc1cnc(C)c(F)c1-c1cc(C)ncc1C(=O)Nc1nnc(OC[C@@H]2CCOC2)s1 [Example 250, 3′-fluoro-5′-methoxy-2′,6-dimethyl-N-(5-(((R)-tetrahydrofuran-3-yl)methoxy)-1,3,4-thiadiazol-2-yl)-(4,4′-bipyridine)-3-carboxamide] | ≤ 200 nM
20 | COc1cccc(F)c1-c1cc(C)ncc1C(=O)Nc1nnc(OCc2ccc3c(n2)CCC[C@@H]3O)s1 [Example 116, 4-(2-fluoro-6-methoxyphenyl)-N-(5-(((S)-5-hydroxy-5,6,7,8-tetrahydroquinolin-2-yl)methoxy)-1,3,4-thiadiazol-2-yl)-6-methylnicotinamide] | ≤ 200 nM
21 | COc1cnc(Cl)cc1-c1cc(C)ncc1C(=O)Nc1nnc(OCC2CCN(C)CC2)s1 [Example 178, 2′-chloro-5′-methoxy-6-methyl-N-(5-((1-methylpiperidin-4-yl)methoxy)-1,3,4-thiadiazol-2-yl)-(4,4′-bipyridine)-3-carboxamide] | 200 to 500 nM
22 | COc1cnc(Cl)cc1-c1cc(C)ncc1C(=O)Nc1nnc(OCc2ccc(C(C)(C)OC)cn2)s1 [Example 125, 2′-chloro-5′-methoxy-N-(5-((5-(2-methoxypropan-2-yl)pyridin-2-yl)methoxy)-1,3,4-thiadiazol-2-yl)-6-methyl-(4,4′-bipyridine)-3-carboxamide] | ≤ 200 nM
23 | COCc1cc(-c2cc(Cl)ncc2OC)c(C(=O)Nc2nnc(OC[C@@H]3COCCO3)s2)cn1 [Example 216, (S)—N-(5-((1,4-dioxan-2-yl)methoxy)-1,3,4-thiadiazol-2-yl)-2′-chloro-5′-methoxy-6-(methoxymethyl)-(4,4′-bipyridine)-3-carboxamide] | ≤ 200 nM
24 | COc1cnc(Cl)cc1-c1cc(C)ncc1C(=O)Nc1nnc(OCC23CC(C(C)(C)O)(C2)C3)s1 [Example 143, 2′-chloro-N-(5-((3-(2-hydroxypropan-2-yl)bicyclo(1.1.1)pentan-1-yl)methoxy)-1,3,4-thiadiazol-2-yl)-5′-methoxy-6-methyl-(4,4′-bipyridine)-3-carboxamide] | ≤ 200 nM
25 | COc1c(-c2cc(C)ncc2C(=O)Nc2nnc(OCc3ccc(Cl)cn3)s2)ccnc1C#N [Example 85, N-(5-((5-chloropyridin-2-yl)methoxy)-1,3,4-thiadiazol-2-yl)-2′-cyano-3′-methoxy-6-methyl-[4,4′-bipyridine]-3-carboxamide] | ≤ 200 nM
26 | COc1cnc(Cl)cc1-c1cc(C)ncc1C(=O)Nc1nnc(OC[C@@H]2CO[C@H](C)C2)s1 (single isomer, unassigned) [Example 253] | ≤ 200 nM
27 | COc1cnc(Cl)cc1-c1cc(C)ncc1C(=O)Nc1nnc(OCC2CCO2)s1 (racemic) [Example 165, 2′-chloro-5′-methoxy-6-methyl-N-(5-(oxetan-2-ylmethoxy)-1,3,4-thiadiazol-2-yl)-(4,4′-bipyridine)-3-carboxamide] | ≤ 200 nM
28 | COc1cnc(C2CC2)cc1-c1cc(C)ncc1C(=O)Nc1nnc(OCc2ccc(C(C)(C)O)cn2)s1 [Example 105, 2′-cyclopropyl-N-(5-((5-(2-hydroxypropan-2-yl)pyridin-2-yl)methoxy)-1,3,4-thiadiazol-2-yl)-5′-methoxy-6-methyl-[4,4′-bipyridine]-3-carboxamide] | ≤ 200 nM
29 | COc1cnc(Cl)cc1-c1cc(C)ncc1C(=O)Nc1nnc(OCC2CNC2)s1 [Example 173, N-(5-(azetidin-3-ylmethoxy)-1,3,4-thiadiazol-2-yl)-2′-chloro-5′-methoxy-6-methyl-(4,4′-bipyridine)-3-carboxamide] | 1000 to 10000 nM
30 | COc1cccc(F)c1-c1cc(C)ncc1C(=O)Nc1nnc(OCc2ccc(C(C)O)cn2)s1 (racemic) [Example 22, 4-(2-fluoro-6-methoxyphenyl)-N-(5-((5-(1-hydroxyethyl)pyridin-2-yl)methoxy)-1,3,4-thiadiazol-2-yl)-6-methylnicotinamide] | ≤ 200 nM
31 | COc1ccccc1-c1cc(C)ncc1C(=O)Nc1nnc(OCc2ccc(C3(C(=O)O)CC3)cn2)s1 [compound 4, 1-(6-(((5-(4-(2-methoxyphenyl)-6-methylnicotinamido)-1,3,4-thiadiazol-2-yl)oxy)methyl)pyridin-3-yl)cyclopropane-1-carboxylic acid] | ≤ 200 nM
